Results: US20210400967A1, “COMPOSITIONS COMPRISING PYRIDINE CARBOXYLATE HERBICIDES WITH GLYPHOSATE OR GLUFOSINATE” (Corteva Agriscience LLC, priority 2018, published 2021)

Legend:
Assay type in all cases: in vivo
[1] = test system: Brassica napus (winter rape); assay: Greenhouse postemergence herbicidal effect, winter rape (BRSNW); details: Example 6; Glufosinate 112.5 g ai/ha alone; 20-22 d
From the text: (§1) Greenhouse Trial Methodology—Evaluation of Postemergence Herbicidal Effect
(§2) Seeds of the desired test plant species were planted in a 90:10% v/v (volume/volume) mixture of PRO-MIX® BX (Premier Tech Horticulture, Quakertown, Pa., USA) and PROFILE® GREENS GRADE™ (Profile Products LLC, Buffalo Grove, Ill., USA) planting mixture, which typically has a pH of 5.2 to 6.2 and an organic matter content of at least 50 percent, in plastic pots with a surface area of 103.2 square centimeters (cm^2). In some aspects, to ensure good germination and healthy plants, a fungicide treatment and/or other chemical or physical treatment was applied. The plants were grown for 7-36 days (d) in a greenhouse with an approximate 14-hour (h) photo-period which was maintained at about 23° C. during the day and 22° C. during the night. Nutrients and water were added on a regular basis and supplemental lighting was provided with overhead metal halide 1000-Watt lamps as necessary. The plants were employed for testing when they reached the second or third true leaf stage.
(§3) Emulsifiable concentrates of each of each pyridine carboxylate herbicide (Compound A or Compound B) were prepared at 100 grams acid equivalent per liter (g ae/L). The emulsifiable concentrates also included a safener, cloquintocet-mexyl, at 120 grams active ingredient per liter (g ai/L). An aliquot of each emulsifiable concentrate was placed in a 25 mL glass vial and diluted with an aqueous mixture of 1.25% (v/v) ACTIROB® B esterified rapeseed oil (Bayer Crop Science, Research Triangle Park, N.C., USA) or MSO® Concentrate with LECI-TECH® methylated soybean oil (Loveland Products, Loveland, Colo., USA) to obtain concentrated stock solutions at the highest application rate for each herbicide, based upon a 12 milliliter (mL) application volume at a rate of 187 liters per hectare (L/ha). The concentrated stock solutions were further diluted with an aqueous mixture of 1.25% v/v ACTIROB® B or MSO® Concentrate with LECI-TECH® to obtain stock solutions at reduced application rates for each herbicide. Spray solutions of the herbicide combinations (Compound A or Compound B plus glyphosate or glufosinate) were prepared by adding weighed amounts or aliquots of the glyphosate or glufosinate to the stock solutions of Compound A or Compound B to form 12-mL spray solutions in two-way combinations.
(§4) The spray solutions were applied to the plant material with an overhead Mandel track sprayer equipped with 8002E nozzles calibrated to deliver 187 L/ha over an application area of 0.503 square meters (m^2) at a spray height of 18 inches (43 centimeters (cm)) above the average plant canopy. Control plants were sprayed in the same manner with the solvent blank. All pyridine carboxylate herbicide (component a) application rates are given as “g ae/ha” and all glyphosate or glufosinate (component b) application rates are given as “g ai/ha.”
(§5) The treated plants and control plants were placed in a greenhouse as described above and watered by sub-irrigation to prevent wash-off of the test compounds. After 20-22 d, the condition of the test plants as compared with that of the control plants was determined visually and scored on a scale of 0 to 100 percent where 0 corresponds to no injury and 100 corresponds to complete kill.

[2] = test system: Polygonum convolvulus (wild buckwheat); assay: Greenhouse postemergence herbicidal effect, wild buckwheat (POLCO); details: 20-22 d
From the text: as §1, §2, §3, §4, §5

[3] = test system: Sinapis arvensis (wild mustard); assay: Greenhouse postemergence herbicidal effect, wild mustard (SINAR); details: Example 6; Glufosinate 112.5 g ai/ha alone; 20-22 d
From the text: as §1, §2, §3, §4, §5

[4] = test system: Salsola kali (Russian thistle); assay: Greenhouse postemergence herbicidal effect, Russian thistle (SASKR); details: Example 6; Glufosinate 112.5 g ai/ha alone; 20-22 d
From the text: as §1, §2, §3, §4, §5

Kochia scoparia (kochia) = assay: Greenhouse postemergence herbicidal effect, kochia (KCHSC); details: 20-22 d
From the text: as §1, §2, §3, §4, §5

[5] = test system: Chenopodium album L. (common lambsquarters); assay: Greenhouse postemergence herbicidal effect, common lambsquarters (CHEAL); details: Glufosinate 112.5 g ai/ha alone, 20-22 d
From the text: as §1, §2, §3, §4, §5

[6] = test system: Amaranthus retroflexus (pigweed); assay: Greenhouse postemergence herbicidal effect, pigweed (AMARE); details: Example 6; Glufosinate 112.5 g ai/ha alone; 20-22 d
From the text: as §1, §2, §3, §4, §5

[7] = test system: Matricaria chamomilla (wild chamomile); assay: Greenhouse postemergence herbicidal effect, wild chamomile (MATCH); details: Example 6; Glufosinate 112.5 g ai/ha alone; 20-22 d
From the text: as §1, §2, §3, §4, §5

[8] = test system: Cirsium arvense (Canadian thistle); assay: Greenhouse postemergence herbicidal effect, Canadian thistle (CIRAR); details: 20-22 d
From the text: as §1, §2, §3, §4, §5

[9] = test system: Triticum aestivum (spring wheat); assay: Greenhouse postemergence phytotoxicity on crop, spring wheat (TRZAS); details: Example 6; Glufosinate 112.5 g ai/ha alone; 20-22 d
From the text: as §1, §2, §3, §4, §5

[10] = test system: Hordeum vulgare (spring barley); assay: Greenhouse postemergence phytotoxicity on crop, spring barley (HORVS); details: Example 6; Glufosinate 112.5 g ai/ha alone; 20-22 d
From the text: as §1, §2, §3, §4, §5

[11] = test system: Brassica napus (spring rape); assay: Greenhouse postemergence herbicidal effect, spring rape (BRSNN); details: Example 4; Glufosinate 112.5 g ai/ha alone; 20-22 d
From the text: as §1, §2, §3, §4, §5

[12] = test system: Setaria faberi (giant foxtail); assay: Greenhouse postemergence herbicidal effect, giant foxtail (SETFA); details: Example 4; Glufosinate 112.5 g ai/ha alone; 20-22 d
From the text: as §1, §2, §3, §4, §5

[13] = test system: Abutilon theophrasti (velvetleaf); assay: Greenhouse postemergence herbicidal effect, velvetleaf (ABUTH); details: Example 4; Glufosinate 112.5 g ai/ha alone; 20-22 d
From the text: as §1, §2
(§6) Emulsifiable concentrates of each of each pyridine carboxylate herbicide (Compound A or Compound B) were prepared at 100 grams acid equivalent per liter (g ae/L). The emulsifiable concentrates also included a safener, cloquintocet-mexyl, at 120 grams active ingredient per liter (g ai/L). […]
as §5

[14] = test system: Viola tricolor (wild pansy); assay: Greenhouse postemergence herbicidal effect, wild pansy (VIOTR); details: 20-22 d
From the text: as §1, §2, §3, §4, §5

[15] = test system: Stellaria media (chickweed); assay: Greenhouse postemergence herbicidal effect, chickweed (STEME); details: Example 5; Glufosinate 70 g ai/ha alone; 20-22 d
From the text: as §1, §2, §6, §5

[16] = test system: Echinochloa crus-galli (barnyardgrass); assay: Greenhouse postemergence herbicidal effect, barnyardgrass (ECHCG); details: Example 5; Glufosinate 70 g ai/ha alone; 20-22 d
From the text: as §1, §2, §6, §5

[17] = test system: Euphorbia heterophylla (poinsettia); assay: Greenhouse postemergence herbicidal effect, poinsettia (EPHHL); details: Example 5; Glufosinate 70 g ai/ha alone; 20-22 d
From the text: as §1, §2, §6, §5

[18] = test system: Sorghum vulgare (grain sorghum); assay: Greenhouse postemergence herbicidal effect, grain sorghum (SORVU); details: Example 5; Glufosinate 70 g ai/ha alone; 20-22 d
From the text: as §1, §2, §6, §5

[19] = test system: Cyperus esculentus (nutsedge); assay: Greenhouse postemergence herbicidal effect, nutsedge (CYPES); details: Example 5; Glufosinate 70 g ai/ha alone; 20-22 d
From the text: as §1, §2, §6, §5

[20] = test system: Rumex obtusifolius (broad-leaf dock); assay: Greenhouse postemergence herbicidal effect, broad-leaf dock (RUMOB); details: Example 5; Glufosinate 70 g ai/ha alone; 20-22 d
From the text: as §1, §2, §6, §5

[21] = test system: Ipomoea hederacea (ivyleaf morningglory); assay: Greenhouse postemergence herbicidal effect, ivyleaf morningglory (IPOHE); details: Example 5; Glufosinate 70 g ai/ha alone; 20-22 d
From the text: as §1, §2, §6, §5

[22] = test system: Helianthus annuus (common sunflower); assay: Greenhouse postemergence herbicidal effect, common sunflower (HELAN); details: Example 5; Glufosinate 70 g ai/ha alone; 20-22 d
From the text: as §1, §2, §6, §5

[23] = Example 4, Glufosinate 112.5 g ai/ha alone
[24] = Example 5, Glufosinate 70 g ai/ha alone
[25] = Example 6, Glufosinate 112.5 g ai/ha alone

## CP(=O)(O)CCC(N)C(=O)O (stereo not shown) [Glufosinate, 2-amino-4-(hydroxy(methyl)phosphinyl)butanoic acid]
[1]
  % visual injury, Obs: 20%
[2]; [23]
  % visual injury, Obs: 10%
[2]; [24]
  % visual injury, Obs: 70%
[2]; [25]
  % visual injury, Obs: 15%
[3]
  % visual injury, Obs: 25%
[4]
  % visual injury, Obs: 53%
Kochia scoparia (kochia); [23]
  % visual injury, Obs: 10%
Kochia scoparia (kochia); [24]
  % visual injury, Obs: 15%
Kochia scoparia (kochia); [25]
  % visual injury, Obs: 25%
[5]; Example 4
  % visual injury, Obs: 5%
[5]; Example 6
  % visual injury, Obs: 5%
[6]
  % visual injury, Obs: 65%
[7]
  % visual injury, Obs: 65%
[8]; [23]
  % visual injury, Obs: 8%
[8]; [24]
  % visual injury, Obs: 75%
[8]; [25]
  % visual injury, Obs: 73%
[9]
  % visual injury, Obs: 35%
[10]
  % visual injury, Obs: 35%
[11]
  % visual injury, Obs: 33%
[12]
  % visual injury, Obs: 33%
[13]
  % visual injury, Obs: 20%
[14]; [23]
  % visual injury, Obs: 23%
[14]; [24]
  % visual injury, Obs: 20%
[15]
  % visual injury, Obs: 68%
[16]
  % visual injury, Obs: 30%
[17]
  % visual injury, Obs: 80%
[18]
  % visual injury, Obs: 58%
[19]
  % visual injury, Obs: 13%
[20]
  % visual injury, Obs: 73%
[21]
  % visual injury, Obs: 82%
[22]
  % visual injury, Obs: 98%
